From paper PMC3733713, “Downscaling the Analysis of Complex Transmembrane Signaling Cascades to Closed Attoliter Volumes” (PLoS ONE, 2013) come the findings set out here.

The target of the assay is T1, adenosine A2A receptor (A2AR-YFP) (Homo sapiens, UniProt P29274).
T1 construct: gene ADORA2A; Human adenosine 2A receptor fused C-terminally to EYFP
Nature of the assay: fluorescence correlation spectroscopy titration on single native vesicles from HEK293T cells (KD =[…] on cells). The format is binding.

T1 sequence (P29274 whole entry, the tested form may be a part): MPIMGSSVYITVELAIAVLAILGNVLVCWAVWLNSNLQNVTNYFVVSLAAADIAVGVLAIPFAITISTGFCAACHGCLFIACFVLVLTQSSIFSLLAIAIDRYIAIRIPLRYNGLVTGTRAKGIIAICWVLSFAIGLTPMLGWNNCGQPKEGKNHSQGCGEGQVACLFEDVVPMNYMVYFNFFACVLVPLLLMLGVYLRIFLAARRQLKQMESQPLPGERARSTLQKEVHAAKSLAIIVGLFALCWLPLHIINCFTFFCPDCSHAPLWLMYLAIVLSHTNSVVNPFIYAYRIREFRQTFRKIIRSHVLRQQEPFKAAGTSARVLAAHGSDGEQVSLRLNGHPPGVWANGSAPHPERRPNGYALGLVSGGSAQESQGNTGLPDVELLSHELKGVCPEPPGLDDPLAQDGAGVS

In general, Kd refers to a measure of binding affinity in units of concentration. Low readings indicate higher affinity, high ones lower affinity. Consider XAC-Atto655, for which the Kd came to 67 ± 11 nM.
